Target: HmbR (Neisseria meningitidis, UniProt Q9JYA8)
Test: UV-vis absorption and EPR of ferric heme-bound HmbR
Format: binding
Conditions: 500 mM imidazole, pH 7.4; sixth axial ligand of the bound ferric heme

c1c[nH]cn1 [imidazole]
UV-vis absorption and EPR of ferric heme-bound HmbR: change from pentacoordinate to hexacoordinate ligation upon addition of exogenous imidazole to ferric holoHmbR
